Assay results taken from patent publication US20230089715A1, “MASITINIB FOR THE TREATMENT OF A MULTIPLE SCLEROSIS PATIENT SUBPOPULATION” (AB SCIENCE, priority 2020, published 2023).

Test system: patients with progressive multiple sclerosis (PPMS or non-active SPMS)
Test: Study AB07002: randomized, double-blind, placebo-controlled phase 3 study, overall EDSS change from baseline
Assay type: in vivo, human
Design: key to LSM EDSS, MAS (overall EDSS change from baseline): LS mean EDSS change from baseline; positive value = worsening
Conditions: 4.5 mg/kg/day oral; for ΔEDSS (between group difference, treatment-effect vs placebo) / LSM EDSS, MAS (overall EDSS change from baseline) / R % (relative difference in ΔEDSS with respect to full analysis dataset): 96 weeks; for treatment-effect with respect to placebo (EDSS): non-active SPMS
Procedure: An international, multicenter, randomized, double-blind, placebo-controlled phase 3 study was conducted with the objective to evaluate oral masitinib at a dose of 4.5 mg/kg/day as a treatment for progressive multiple sclerosis (progressive MS), as defined hereinabove. […] Eligible patients were treated for 96 weeks with masitinib at a dose of 4.5 mg/kg/day (mg per kilo body weight per day) or with placebo. Primary endpoint was overall EDSS change from baseline using a repeated analysis of covariance model (i.e., ANCOVA GEE model on all measurements from week 12 (W12) to week 96 (W96)). Results are expressed as least-squares means difference, illustrating the progression of EDSS score, that is to say the change over time in the EDSS score or in other words the difference between the EDSS score at baseline and the EDSS score after treatment with masitinib or with placebo (a positive value indicates a worsening of the patient). Treatment-effect is reported as between-group difference (ΔLSM, negative value indicates a beneficial effect of treatment with masitinib as compared to treatment with placebo). […] Patients suffering from a disease other than MS that would better explain their neurological clinical signs and symptoms and/or lesions observed with magnetic resonance imaging (“MRI lesions”) were excluded. Subpopulation analyses of primary endpoint data from study AB07002 assessed the impact of the clinical markers ‘time from onset’ with respect to baseline (i.e., date of treatment initiation), derived from the estimated date of first clinical MS symptom(s), or ‘time from diagnosis’ with respect to baseline (i.e., date of treatment initiation), on masitinib efficacy in patients with progressive MS (see Example 3). ‘Time from onset’ is derived from the date (year/month/day, year/month, or year) of first clinical symptom(s) with duration calculated from date of treatment initiation. The date of first symptom(s) is typically determined retrospectively from medical history, for example from medical records and patient/caregiver historical recall of MS related symptoms following a clinically definite diagnosis. Imputation of missing data can be handled using various methods, one example of which is the following approach: if the information regarding day is missing, the day is considered to be the last day of the month; if the day and month are missing, the day is considered to be the last day of June. ‘Time from diagnosis’ of progressive MS, is ideally based on a clinically definite diagnosis of progressive MS as determined by a MS specialist neurologist. In practice it is derived from the date (year/month/day, year/month, or year) of first clinically definite diagnosis of progressive MS, i.e., PPMS or non-active SPMS, with duration calculated from date of treatment initiation. At the time of MS diagnosis, a provisional disease course should be specified (relapsing-remitting, primary progressive, or secondary progressive) and whether the course is active or not (non-active) and progressive or not based on the previous year's history. The phenotype should be periodically re-evaluated based on accumulated information. Comparison of subpopulation analyses with respect to the corresponding full analysis dataset (see Table 4) is reported as relative difference in ΔEDSS (R %). A large positive R % value indicates a subpopulation that receives greater benefit from masitinib treatment, while a negative R % value indicates a diminished treatment-effect or lack of discernable treatment-effect in the subpopulation.

[1] = nSPMS, T(diag) > 2 Y and T(onset) > 5 Y

Cc1ccc(NC(=O)c2ccc(CN3CCN(C)CC3)cc2)cc1Nc1nc(-c2cccnc2)cs1 [masitinib, 4-(4-methylpiperazin-1-ylmethyl)-N-[4-methyl-3-(4-pyridin-3ylthiazol-2-ylamino)phenyl]benzamide]
ΔEDSS (between group difference, treatment-effect vs placebo) (Progressive MS, T(diag) ≤ 1 Y): 0.261 | LSM EDSS, MAS (overall EDSS change from baseline) (Progressive MS, T(diag) ≤ 2 Y): 0.163 | LSM EDSS, MAS (overall EDSS change from baseline) (Progressive MS, T(diag) ≤ 3 Y): 0.056 | ΔEDSS (between group difference, treatment-effect vs placebo) (Progressive MS, T(diag) ≤ 3 Y): 0.053 | LSM EDSS, MAS (overall EDSS change from baseline) (Progressive MS, T(diag) ≤ 4 Y): 0.075 | ΔEDSS (between group difference, treatment-effect vs placebo) (Progressive MS, T(diag) ≤ 4 Y): −0.028 | LSM EDSS, MAS (overall EDSS change from baseline) (Progressive MS, T(onset) > 1 Y): 0.012 | R % (relative difference in ΔEDSS with respect to full analysis dataset) (Progressive MS, T(onset) > 1 Y): −5% | ΔEDSS (between group difference, treatment-effect vs placebo) (Progressive MS, T(onset) > 1 Y): −0.094 | LSM EDSS, MAS (overall EDSS change from baseline) (Progressive MS, T(onset) > 2 Y): 0.004 | R % (relative difference in ΔEDSS with respect to full analysis dataset) (Progressive MS, T(onset) > 2 Y): 1% | ΔEDSS (between group difference, treatment-effect vs placebo) (Progressive MS, T(onset) > 2 Y): −0.100 | LSM EDSS, MAS (overall EDSS change from baseline) (Progressive MS, T(onset) > 3 Y): −0.010 | R % (relative difference in ΔEDSS with respect to full analysis dataset) (Progressive MS, T(onset) > 3 Y): 20% | ΔEDSS (between group difference, treatment-effect vs placebo) (Progressive MS, T(onset) > 3 Y): −0.119 | LSM EDSS, MAS (overall EDSS change from baseline) (Progressive MS, T(onset) > 4 Y): −0.027 | R % (relative difference in ΔEDSS with respect to full analysis dataset) (Progressive MS, T(onset) > 4 Y): 29% | ΔEDSS (between group difference, treatment-effect vs placebo) (Progressive MS, T(onset) > 4 Y): −0.128 | LSM EDSS, MAS (overall EDSS change from baseline) (Progressive MS, T(onset) > 5 Y): −0.031 | ΔEDSS (between group difference, treatment-effect vs placebo) (Progressive MS, T(onset) > 5 Y): −0.156 | R % (relative difference in ΔEDSS with respect to full analysis dataset) (Progressive MS, T(onset) > 5 Y, 4.5 mg/kg/day): 58% | LSM EDSS, MAS (overall EDSS change from baseline) (Progressive MS, T(onset) ≤ 3 Y): 0.106 | ΔEDSS (between group difference, treatment-effect vs placebo) (Progressive MS, T(onset) ≤ 3 Y): 0.346 | LSM EDSS, MAS (overall EDSS change from baseline) (Progressive MS, T(onset) ≤ 4 Y): −0.000 | ΔEDSS (between group difference, treatment-effect vs placebo) (Progressive MS, T(onset) ≤ 4 Y): 0.146 | LSM EDSS, MAS (overall EDSS change from baseline) (Progressive MS, T(onset) ≤ 5 Y): 0.259 | LSM EDSS, MAS (overall EDSS change from baseline) (Progressive MS, complement T(diag) ≤ 2 Y or T(onset) ≤ 5 Y): 0.173 | LSM EDSS, MAS (overall EDSS change from baseline) (Progressive MS, full analysis dataset): 0.008 | ΔEDSS (between group difference, treatment-effect vs placebo) (Progressive MS, full analysis dataset, 4.5 mg/kg/day): −0.099 | ΔEDSS (between group difference, treatment-effect vs placebo) (Progressive MS, full analysis dataset, listed as Masitinib, 4.5 mg/kg/day): significant slowing of EDSS progression | LSM EDSS, MAS (overall EDSS change from baseline) (nSPMS, T(diag) > 1 Y): −0.039 | R % (relative difference in ΔEDSS with respect to full analysis dataset) (nSPMS, T(diag) > 1 Y): 6% | ΔEDSS (between group difference, treatment-effect vs placebo) (nSPMS, T(diag) > 1 Y): −0.101 | LSM EDSS, MAS (overall EDSS change from baseline) [1]: −0.051 | ΔEDSS (between group difference, treatment-effect vs placebo) [1]: −0.118 | R % (relative difference in ΔEDSS with respect to full analysis dataset) (nSPMS, T(diag) > 2 Y and T(onset) > 5 Y, 4.5 mg/kg/day): 24% | LSM EDSS, MAS (overall EDSS change from baseline) (nSPMS, T(diag) > 2 Y): −0.039 | R % (relative difference in ΔEDSS with respect to full analysis dataset) (nSPMS, T(diag) > 2 Y): 7% | LSM EDSS, MAS (overall EDSS change from baseline) (nSPMS, T(diag) > 3 Y): −0.045 | R % (relative difference in ΔEDSS with respect to full analysis dataset) (nSPMS, T(diag) > 3 Y): 13% | LSM EDSS, MAS (overall EDSS change from baseline) (nSPMS, T(diag) > 4 Y): −0.050 | R % (relative difference in ΔEDSS with respect to full analysis dataset) (nSPMS, T(diag) > 4 Y): 29% | ΔEDSS (between group difference, treatment-effect vs placebo) (nSPMS, T(diag) > 4 Y): −0.123 | LSM EDSS, MAS (overall EDSS change from baseline) (nSPMS, T(diag) ≤ 4 Y): 0.036 | ΔEDSS (between group difference, treatment-effect vs placebo) (nSPMS, T(diag) ≤ 4 Y): −0.004 | LSM EDSS, MAS (overall EDSS change from baseline) (nSPMS, T(onset) > 1 Y): −0.035 | R % (relative difference in ΔEDSS with respect to full analysis dataset) (nSPMS, T(onset) > 1 Y): 0% | ΔEDSS (between group difference, treatment-effect vs placebo) (nSPMS, T(onset) > 1 Y): −0.095 | LSM EDSS, MAS (overall EDSS change from baseline) (nSPMS, T(onset) > 2 Y): −0.035 | R % (relative difference in ΔEDSS with respect to full analysis dataset) (nSPMS, T(onset) > 2 Y): 0% | ΔEDSS (between group difference, treatment-effect vs placebo) (nSPMS, T(onset) > 2 Y): −0.095 | LSM EDSS, MAS (overall EDSS change from baseline) (nSPMS, T(onset) > 3 Y): −0.037 | R % (relative difference in ΔEDSS with respect to full analysis dataset) (nSPMS, T(onset) > 3 Y): 7% | ΔEDSS (between group difference, treatment-effect vs placebo) (nSPMS, T(onset) > 3 Y): −0.102 | LSM EDSS, MAS (overall EDSS change from baseline) (nSPMS, T(onset) > 4 Y): −0.040 | R % (relative difference in ΔEDSS with respect to full analysis dataset) (nSPMS, T(onset) > 4 Y): 16% | ΔEDSS (between group difference, treatment-effect vs placebo) (nSPMS, T(onset) > 4 Y): −0.110 | LSM EDSS, MAS (overall EDSS change from baseline) (nSPMS, T(onset) > 5 Y): −0.050 | R % (relative difference in ΔEDSS with respect to full analysis dataset) (nSPMS, T(onset) > 5 Y): 23% | LSM EDSS, MAS (overall EDSS change from baseline) (nSPMS, full analysis dataset): −0.035 | ΔEDSS (between group difference, treatment-effect vs placebo) (nSPMS, full analysis dataset, 4.5 mg/kg/day): −0.095 | ΔEDSS (between group difference, treatment-effect vs placebo) (nSPMS, full analysis dataset, listed as Masitinib, 4.5 mg/kg/day): significant slowing of EDSS progression | treatment-effect with respect to placebo (EDSS) (time from diagnosis to treatment initiation of no more than 2 year): no discernable treatment-effect | treatment-effect with respect to placebo (EDSS) (time from onset to treatment initiation of no more than 5 year): no discernable treatment-effect
